Test results taken from the Kinase Knowledgebase extract (Sharma et al. 2016).

Legend:
EGFR (human) [1] = biological target: EGFR (human) (UniProt P00533); conditions: huvec
EGFR (human) [2] = biological target: EGFR (human) (UniProt P00533); assay: Assessment of DiFi Cell Growth Inhibition by MTS Assay
EGFR = EGFR (UniProt P00533)
Sequence of EGFR (P00533 whole entry, looked up): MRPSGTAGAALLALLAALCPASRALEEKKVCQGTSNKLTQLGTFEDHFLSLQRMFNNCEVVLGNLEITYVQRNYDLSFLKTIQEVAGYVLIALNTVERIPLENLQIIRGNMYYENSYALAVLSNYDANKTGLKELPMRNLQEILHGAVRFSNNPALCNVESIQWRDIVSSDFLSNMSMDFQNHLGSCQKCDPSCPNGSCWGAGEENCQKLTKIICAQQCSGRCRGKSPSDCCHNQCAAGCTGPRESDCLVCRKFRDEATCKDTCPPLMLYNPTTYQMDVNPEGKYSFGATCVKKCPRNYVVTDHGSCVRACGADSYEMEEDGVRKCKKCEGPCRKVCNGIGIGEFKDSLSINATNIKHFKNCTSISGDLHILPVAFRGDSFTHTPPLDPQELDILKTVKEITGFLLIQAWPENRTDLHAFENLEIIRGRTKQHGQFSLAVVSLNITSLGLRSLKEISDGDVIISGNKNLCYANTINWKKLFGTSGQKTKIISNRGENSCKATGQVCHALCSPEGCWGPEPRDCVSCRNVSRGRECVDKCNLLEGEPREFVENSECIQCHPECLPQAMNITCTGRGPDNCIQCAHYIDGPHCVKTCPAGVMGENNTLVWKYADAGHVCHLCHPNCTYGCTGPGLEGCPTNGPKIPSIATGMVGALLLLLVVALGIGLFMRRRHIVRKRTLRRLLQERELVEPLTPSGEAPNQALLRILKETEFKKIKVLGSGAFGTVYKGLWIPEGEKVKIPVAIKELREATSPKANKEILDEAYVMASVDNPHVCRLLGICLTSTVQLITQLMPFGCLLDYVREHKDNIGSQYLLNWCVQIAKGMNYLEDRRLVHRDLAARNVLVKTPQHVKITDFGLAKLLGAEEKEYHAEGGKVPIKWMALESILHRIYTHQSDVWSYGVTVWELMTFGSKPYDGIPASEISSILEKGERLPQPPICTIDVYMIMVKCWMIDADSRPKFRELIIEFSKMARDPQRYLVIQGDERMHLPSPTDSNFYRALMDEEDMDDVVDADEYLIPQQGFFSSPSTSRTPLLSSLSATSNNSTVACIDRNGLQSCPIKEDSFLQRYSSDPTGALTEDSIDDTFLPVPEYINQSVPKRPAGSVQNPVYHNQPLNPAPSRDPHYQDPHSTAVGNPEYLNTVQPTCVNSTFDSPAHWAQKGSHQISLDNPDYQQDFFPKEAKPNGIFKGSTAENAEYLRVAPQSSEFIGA

Sequence of EGFR (human) (P00533 whole entry, looked up): as above

SMILES	IC50 (EGFR (human) [1])	IC50 (EGFR (human) [2])	IC50 (EGFR)
Cc1cc2c(Nc3ccc(F)c(Cl)c3)ncnn2c1	0.509 µM	1.6 µM	–
Cc1ccc(Nc2ncnn3cc(C)c(C)c23)cc1O	–	> 10 µM	–
Fc1ccc(Nc2ncnn3cccc23)cc1Cl	0.345 µM	1.84 µM	0.118 µM
Cc1ccc(Nc2ncnn3cccc23)cc1O	–	> 10 µM	–
Cc1cc2c(Nc3ccc(C)c(O)c3)ncnn2c1	–	> 10 µM	–
Cc1ccc2c(Nc3ccc(F)c(Cl)c3)ncnn12	> 2.5 µM	> 10 µM	–
Cc1ccn2ncnc(Nc3ccc(F)c(Cl)c3)c12	0.602 µM	3.06 µM	–
Cc1ccc(Nc2ncnn3ccc(C)c23)cc1O	0.27 µM	> 10 µM	–
Cc1ccc(Nc2ncnn3c(C)ccc23)cc1O	0.101 µM	> 10 µM	–
